Patent publication US11214803B2, “Modulators of YAP1 expression” (Ionis Pharmaceuticals, Inc., priority 2019, dated 2022)
Strand notation (5' to 3'): a small letter for the sugar, then the base; units joined by * are phosphorothioate-linked, units joined directly phosphodiester-linked; [ ] holds rarer units or linkages, { } end groups; capitals alone tell only the bases. k = constrained ethyl (cEt); [5mC] = 5-methylcytosine; d = 2'-deoxy (DNA)

tested on: Yap1 mRNA; assay: Antisense inhibition of human Yap1 in A-431 cells by cEt gapmers, single dose (Example 3, RTS36584); type: cell-based; conditions: Table 8; A-431 cells, 5,000 cells per well, free uptake, 2,000 nM, approximately 48 hours; RTS36584; normalized to RIBOGREEN; Yap1 mRNA relative to untreated control cells
Method in brief: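 Human epidermoid A-431 cells take up gapmer (2,000 nM, free uptake, ~48 h); Yap1 transcript is then assayed by qRT-PCR with RiboGreen normalization and reported relative to untreated cells. Gapmers carry cEt-modified wings, phosphorothioate linkages and 5-methylcytosine throughout.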

Substance | YAP1 (% UTC)
958401 (antisense kA*kG*kT*dT*dA*dT*dT*d[5mC]*dA*dG*d[5mC]*dA*dG*k[5mC]*kT*kT) [Compound 958401] | 19 % UTC
958420 (antisense kT*kT*k[5mC]*dA*dT*dA*dA*dT*d[5mC]*dT*dG*dA*d[5mC]*kT*kA*kG) [Compound 958420] | 66 % UTC

same assay, conditions: Table 9; A-431 cells, 5,000 cells per well, free uptake, 2,000 nM, approximately 48 hours; RTS36584; normalized to RIBOGREEN; Yap1 mRNA relative to untreated control cells

Substance | YAP1 (% UTC)
958521 (kT*kT*k[5mC]*d[5mC]*dA*dA*dT*dT*d[5mC]*dA*dT*d[5mC]*dA*kG*kA*kT; antisense) [Compound 958521] | 14 % UTC
958796 (antisense kA*kT*kT*dA*dT*dA*dT*dG*dG*dT*dT*dG*d[5mC]*kT*kT*k[5mC]) [Compound 958796] | 3 % UTC
958731 (antisense kG*k[5mC]*kT*d[5mC]*dT*dG*dT*d[5mC]*dA*dG*dT*dT*dA*kT*k[5mC]*k[5mC]) [Compound 958731] | 7 % UTC

same assay, conditions: Table 10; A-431 cells, 5,000 cells per well, free uptake, 2,000 nM oligonucleotide, approx. 48 hours; primer probe set RTS36584; Yap1 mRNA normalized to RIBOGREEN, percent of untreated control

Substance | YAP1 (% UTC)
958472 (antisense kT*k[5mC]*k[5mC]*dT*dT*dA*dG*dA*dT*d[5mC]*d[5mC]*dT*dT*k[5mC]*kA*k[5mC]) [Compound 958472] | 5 % UTC
958567 (kT*k[5mC]*kA*dA*d[5mC]*d[5mC]*dT*dA*dT*dG*dA*dA*d[5mC]*kT*kA*kT; antisense) [Compound 958567] | 3 % UTC

same assay, conditions: Table 11; A-431 cells, 5,000 cells per well, free uptake, 2,000 nM oligonucleotide, approx. 48 hours; primer probe set RTS36584; Yap1 mRNA normalized to RIBOGREEN, percent of untreated control

Substance | YAP1 (% UTC)
958443 (antisense k[5mC]*kT*k[5mC]*d[5mC]*dA*d[5mC]*dG*dG*dG*d[5mC]*d[5mC]*dG*dA*kG*kG*kT) [Compound 958443] | 90 % UTC
958703 (antisense kG*kA*kT*dA*dA*d[5mC]*dT*dA*dA*dG*d[5mC]*dA*d[5mC]*kT*kA*k[5mC]) [Compound 958703] | 49 % UTC
958753 (antisense kT*kG*kT*dA*dT*dA*dT*dG*d[5mC]*d[5mC]*dG*dT*dT*k[5mC]*k[5mC]*k[5mC]) [Compound 958753] | 4 % UTC
958608 (antisense kT*kG*kA*dT*dA*dG*dG*d[5mC]*dA*d[5mC]*dA*d[5mC]*d[5mC]*k[5mC]*kA*k[5mC]) [Compound 958608] | 11 % UTC
958483 (antisense kG*kA*kG*dG*dA*dT*dT*dA*dA*dA*dG*dT*dA*kT*k[5mC]*kT) [Compound 958483] | 17 % UTC

same assay, conditions: Table 12; A-431 cells, 5,000 cells per well, free uptake, 2,000 nM modified oligonucleotide, approx. 48 hours; RTS36584; normalized to RIBOGREEN; Yap1 mRNA relative to untreated control cells

Substance | YAP1 (% UTC)
958809 (kT*k[5mC]*kT*dT*dA*dA*d[5mC]*dA*d[5mC]*d[5mC]*dT*dG*dA*kG*k[5mC]*kT; antisense) [Compound 958809] | 66 % UTC
958644 (antisense kA*kT*kG*dA*dT*d[5mC]*dA*dA*dA*d[5mC]*d[5mC]*dT*dT*kT*kT*k[5mC]) [Compound 958644] | 5 % UTC
958654 (kA*kA*kT*dG*dG*dA*dG*dT*dG*dG*d[5mC]*d[5mC]*dG*kG*kG*k[5mC]; antisense) [Compound 958654] | 110 % UTC
958699 (antisense kG*kA*k[5mC]*dT*dA*dG*dA*dA*dA*dG*dA*dT*d[5mC]*kA*kT*k[5mC]) [Compound 958699] | 20 % UTC
958749 (antisense k[5mC]*k[5mC]*kA*d[5mC]*dA*dA*dG*dG*dG*d[5mC]*dA*dG*dT*kA*k[5mC]*kG) [Compound 958749] | 51 % UTC

same assay, conditions: Table 13; A-431 cells, 5,000 cells per well, free uptake, 2,000 nM modified oligonucleotide, approx. 48 hours; RTS36584; normalized to RIBOGREEN; Yap1 mRNA relative to untreated control cells

Substance | YAP1 (% UTC)
958640 (antisense kT*kA*kG*dA*dT*dA*dA*d[5mC]*dT*dG*dT*d[5mC]*dT*k[5mC]*k[5mC]*k[5mC]) [Compound 958640] | 13 % UTC
958595 (k[5mC]*k[5mC]*kA*d[5mC]*dA*dT*d[5mC]*dA*dA*dG*dG*d[5mC]*dT*kA*kT*kG; antisense) [Compound 958595] | 8 % UTC

same assay, conditions: Table 26; Yap1 mRNA by 3-10-3 cEt gapmers targeting SEQ ID NO.: 1, and 2; percent of untreated control

Substance | YAP1 (% UTC)
1074252 (antisense kG*kG*kA*d[5mC]*dA*dG*d[5mC]*dA*dT*dG*dG*d[5mC]*d[5mC]*kT*kT*k[5mC]) [compound 1074252] | 50 % UTC
1076172 (kT*kA*kT*dT*dA*dG*dT*dA*dA*dA*dG*dA*dG*kT*kA*k[5mC]; antisense) [compound 1076172] | 98 % UTC
1076076 (kT*kA*kT*d[5mC]*dA*dA*dT*dA*d[5mC]*dT*dT*dT*dA*kG*kT*k[5mC]; antisense) [compound 1076076] | 57 % UTC
1075276 (kG*kA*k[5mC]*d[5mC]*dA*dA*dT*dA*d[5mC]*dA*dA*dT*dG*kG*kG*kA; antisense) [compound 1075276] | 78 % UTC

same assay, conditions: Table 27; Yap1 mRNA by 3-10-3 cEt gapmers targeting SEQ ID NO.: 1, and 2; percent of untreated control

Substance | YAP1 (% UTC)
1076205 (kT*kA*kG*dT*dA*dT*dA*dA*dT*dT*d[5mC]*dA*dT*kG*kA*k[5mC]; antisense) [compound 1076205] | 51 % UTC
1076493 (kT*kG*kA*d[5mC]*dA*dA*dT*dA*dA*dG*dG*dG*dA*k[5mC]*kA*kA; antisense) [compound 1076493] | 34 % UTC
1074381 (kA*kG*kT*d[5mC]*dT*dG*dG*dG*dA*dA*dA*d[5mC]*dG*kG*kT*kT; antisense) [compound 1074381] | 16 % UTC
1075533 (kG*kA*kT*dT*dA*d[5mC]*dT*d[5mC]*dA*dG*d[5mC]*dT*dA*kT*kG*kT; antisense) [compound 1075533] | 65 % UTC
1075437 (antisense kT*kA*kT*dT*dA*dG*dT*dA*d[5mC]*dG*dA*dG*d[5mC]*kT*kA*k[5mC]) [compound 1075437] | 85 % UTC

same assay, conditions: Table 28; Yap1 mRNA as percent of untreated control; 3-10-3 cEt gapmers targeting SEQ ID NO.: 1, and 2

Substance | YAP1 (% UTC)
1074926 (antisense k[5mC]*kA*kA*d[5mC]*dA*dG*dG*d[5mC]*d[5mC]*dT*dG*d[5mC]*dA*kA*kA*kT) [compound 1074926] | 111 % UTC
1075534 (kA*k[5mC]*k[5mC]*d[5mC]*dA*dA*dG*dG*dA*d[5mC]*dA*dG*d[5mC]*kA*k[5mC]*kA; antisense) [compound 1075534] | 53 % UTC
1075566 (kA*kT*kA*dT*dA*dT*dA*dA*d[5mC]*dA*dG*dG*d[5mC]*k[5mC]*kA*k[5mC]; antisense) [compound 1075566] | 50 % UTC
1075982 (k[5mC]*kA*kT*dG*dA*dA*dA*dG*d[5mC]*dA*dA*dT*dA*kT*k[5mC]*k[5mC]; antisense) [compound 1075982] | 23 % UTC

same assay, conditions: Table 29; Yap1 mRNA as percent of untreated control; 3-10-3 cEt gapmers targeting SEQ ID NO.: 1, and 2

Substance | YAP1 (% UTC)
1074383 (kT*k[5mC]*kA*dA*dG*dG*dT*dA*dG*dT*d[5mC]*dT*dG*kG*kG*kA; antisense) [compound 1074383] | 40 % UTC
1075407 (antisense kG*kA*kA*d[5mC]*dT*dA*dT*dA*dT*dA*dA*d[5mC]*d[5mC]*kT*kG*kA) [compound 1075407] | 32 % UTC
1076559 (kA*kA*k[5mC]*dA*dA*dA*dT*dA*dT*dA*dG*dT*dT*kA*kG*k[5mC]; antisense) [compound 1076559] | 74 % UTC
1075375 (antisense k[5mC]*kT*kA*dA*dA*dT*dA*dT*d[5mC]*dA*dA*d[5mC]*dT*k[5mC]*k[5mC]*k[5mC]) [compound 1075375] | 35 % UTC
1076271 (k[5mC]*kG*kG*d[5mC]*dA*dA*d[5mC]*dA*dA*d[5mC]*dA*dA*dA*kA*kT*kG; antisense) [compound 1076271] | 18 % UTC

same assay, conditions: Table 34; Yap1 mRNA as percent of untreated control; 3-10-3 cEt gapmers targeting SEQ ID NO: 1 and 2; single dose

Substance | YAP1 (% UTC)
1074740 (kG*kG*kA*d[5mC]*dT*d[5mC]*dT*dT*dA*dG*dG*dT*d[5mC]*kT*k[5mC]*k[5mC]; antisense) [compound 1074740] | 75 % UTC
1076308 (kA*kG*kT*dA*dA*dT*dT*dA*d[5mC]*d[5mC]*dT*d[5mC]*dT*kA*kA*kT; antisense) [compound 1076308] | 32 % UTC
1075476 (kT*k[5mC]*kT*dT*dA*dT*d[5mC]*d[5mC]*dT*dA*d[5mC]*dA*dG*k[5mC]*kT*kT; antisense) [compound 1075476] | 75 % UTC
1074260 (antisense kG*kT*kT*d[5mC]*dA*dT*d[5mC]*dA*dT*dA*dT*dT*d[5mC]*kT*kG*k[5mC]) [compound 1074260] | 48 % UTC
1075668 (antisense kA*kA*kT*dT*dA*dT*dT*dG*dG*dT*dG*dA*d[5mC]*kA*k[5mC]*kT) [compound 1075668] | 80 % UTC
1074900 (antisense kA*kT*kT*dA*dA*d[5mC]*dT*dT*dT*dT*dG*dG*dG*k[5mC]*kA*kA) [compound 1074900] | 40 % UTC
1074804 (kT*kA*kG*d[5mC]*dA*dA*dA*dG*dT*d[5mC]*dA*d[5mC]*dT*kT*k[5mC]*k[5mC]; antisense) [compound 1074804] | 15 % UTC
1076052 (kG*k[5mC]*kA*dA*dT*dA*dA*dA*dG*d[5mC]*dT*dG*dA*kA*k[5mC]*kT; antisense) [compound 1076052] | 23 % UTC

same assay, conditions: Table 35; Yap1 mRNA as percent of untreated control; 3-10-3 cEt gapmers targeting SEQ ID NO: 1 and 2; single dose

Substance | YAP1 (% UTC)
1074325 (antisense k[5mC]*kG*k[5mC]*dA*dG*dG*dG*d[5mC]*dT*dA*dA*d[5mC]*dT*k[5mC]*k[5mC]*kT) [compound 1074325] | 42 % UTC
